According to PubChem BioAssay AID330 (DTP/NCI, 2004):
“And” between values parts separate entries of the source, which are not always exact repeats. Equal values may be shown once. Inconclusive results and toxic doses are left out. Rule for the calls: active = survival T/C of 150% or more; inactive = T/C below 125% in these data.

Tested on: P388 leukemia ip, CD2F1 mice, survival T/C
Experiment: NCI In Vivo Anticancer Drug Screen. Data for tumor model P388 Leukemia (intraperitoneal) in CD2F1 (CDF1) mice
Details: endpoint: median survival time, higher = longer survival
Outline: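 Mice carrying the transplanted tumor received test compound or vehicle. Survival was recorded in each group, and the value is the treated-group measurement divided by that of the vehicle-treated control group.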

[1] = dose: 100.0 mg/kg/injection, schedule: Q01DX009 (ip), vehicle: Klucel (hydroxypropylcellulose) (HPC)
[2] = dose: 200.0 mg/kg/injection, schedule: Q01DX009 (ip), vehicle: Klucel (hydroxypropylcellulose) (HPC)
[3] = dose: 50.0 mg/kg/injection, schedule: Q01DX005 (ip), vehicle: saline
[4] = dose: 50.0 mg/kg/injection, schedule: Q01DX009 (ip), vehicle: saline with Tween-80
[5] = dose: 100.0 mg/kg/injection, schedule: Q01DX009 (ip), vehicle: saline with Tween-80
[6] = dose: 200.0 mg/kg/injection, schedule: Q01DX009 (ip), vehicle: saline with Tween-80
[7] = dose: 50.0 mg/kg/injection, schedule: Q01DX009 (ip), vehicle: saline
[8] = dose: 12.5 mg/kg/injection, schedule: Q01DX005 (ip), vehicle: Klucel (hydroxypropylcellulose) (HPC)
[9] = dose: 25.0 mg/kg/injection, schedule: Q01DX005 (ip), vehicle: Klucel (hydroxypropylcellulose) (HPC)
[10] = dose: 50.0 mg/kg/injection, schedule: Q01DX005 (ip), vehicle: Klucel (hydroxypropylcellulose) (HPC)
[11] = dose: 12.5 mg/kg/injection, schedule: Q01DX009 (ip), vehicle: saline with Tween-80
[12] = dose: 25.0 mg/kg/injection, schedule: Q01DX009 (ip), vehicle: saline with Tween-80
[13] = dose: 100.0 mg/kg/injection, schedule: Q01DX001 (ip), vehicle: saline with Tween-80
[14] = dose: 200.0 mg/kg/injection, schedule: Q01DX001 (ip), vehicle: saline with Tween-80
[15] = dose: 400.0 mg/kg/injection, schedule: Q01DX001 (ip), vehicle: saline with Tween-80
[16] = dose: 50.0 mg/kg/injection, schedule: Q01DX009 (ip), vehicle: Klucel (hydroxypropylcellulose) (HPC)
[17] = dose: 100.0 mg/kg/injection, schedule: Q01DX005 (ip), vehicle: Klucel (hydroxypropylcellulose) (HPC)

Measured: T/C

COc1cccc2c1C(=O)c1c(O)c3c(c(O)c1C2=O)C[C@@](O)(C(C)=O)C[C@@H]3OC1CC(NC(=O)C(N)CCN)C(O)C(C)O1 (some centres not stated)
inactive: dose: 5.0 mg/kg/injection, schedule: Q04DX003 (ip), vehicle: water 96 % of control | dose: 10.0 mg/kg/injection, schedule: Q04DX003 (ip), vehicle: water 94 % of control | dose: 20.0 mg/kg/injection, schedule: Q04DX003 (ip), vehicle: water 99 % of control | dose: 40.0 mg/kg/injection, schedule: Q04DX003 (ip), vehicle: water 105 % of control | dose: 80.0 mg/kg/injection, schedule: Q04DX003 (ip), vehicle: water 118 % of control | dose: 160.0 mg/kg/injection, schedule: Q04DX003 (ip), vehicle: distilled water + Tween-80 106 % of control | dose: 320.0 mg/kg/injection, schedule: Q04DX003 (ip), vehicle: distilled water + Tween-80 105 % of control

ClCCOCCOc1c(Cl)cc(Cl)cc1Cl
inactive: [1] 93 % of control | [2] 103 % of control | dose: 400.0 mg/kg/injection, schedule: Q01DX009 (ip), vehicle: Klucel (hydroxypropylcellulose) (HPC) 100 % of control

c1ccc2c(SCCCCCCSc3c4ccccc4nc4ccccc34)c3ccccc3nc2c1
inactive: dose: 60.0 mg/kg/injection, schedule: Q01DX005 (ip), vehicle: Klucel (hydroxypropylcellulose) (HPC) 90 % of control | dose: 120.0 mg/kg/injection, schedule: Q01DX005 (ip), vehicle: Klucel (hydroxypropylcellulose) (HPC) 86 % of control

CCN(CC)CCSCCNc1cc(OC)cc2cccnc12
inactive: dose: 12.5 mg/kg/injection, schedule: Q01DX005 (ip), vehicle: saline 101 % of control | dose: 25.0 mg/kg/injection, schedule: Q01DX005 (ip), vehicle: saline 101 % of control | [3] 89 % of control and 97 % of control

O=c1[nH]ccc2nc(-c3ccccc3)cn12
inactive: dose: 100.0 mg/kg/injection, schedule: Q04DX003 (ip), vehicle: Klucel (hydroxypropylcellulose) (HPC) 106 % of control | dose: 200.0 mg/kg/injection, schedule: Q04DX003 (ip), vehicle: Klucel (hydroxypropylcellulose) (HPC) 104 % of control | dose: 400.0 mg/kg/injection, schedule: Q04DX003 (ip), vehicle: Klucel (hydroxypropylcellulose) (HPC) 105 % of control

CCCNCc1cccc2ccnc(C)c12
inactive: [3] 109 % of control | dose: 100.0 mg/kg/injection, schedule: Q01DX005 (ip), vehicle: saline 104 % of control | dose: 200.0 mg/kg/injection, schedule: Q01DX005 (ip), vehicle: saline 101 % of control

COc1cc2c(cc1CN(C)C)[nH]c1c3ccc(Cl)cc3ncc21
inactive: dose: 12.5 mg/kg/injection, schedule: Q01DX005 (ip), vehicle: saline with Tween-80 104 % of control | dose: 25.0 mg/kg/injection, schedule: Q01DX005 (ip), vehicle: saline with Tween-80 103 % of control | dose: 50.0 mg/kg/injection, schedule: Q01DX005 (ip), vehicle: saline with Tween-80 109 % of control and 112 % of control

C=C(C)C(=O)OC1C/C(CO)=C\C(OC(C)=O)C/C(C)=C/C2OC(=O)C(=C)C21 (configuration not stated)
inactive: dose: 3.75 mg/kg/injection, schedule: Q01DX009 (ip), vehicle: saline + alcohol 113 % of control | dose: 7.5 mg/kg/injection, schedule: Q01DX009 (ip), vehicle: saline + alcohol 115 % of control | dose: 15.0 mg/kg/injection, schedule: Q01DX009 (ip), vehicle: saline + alcohol 120 % of control

CC1=C[S+](c2ccccc2)c2cccc3cc4ccccc4c1c23 (configuration not stated)
inactive: dose: 0.62 mg/kg/injection, schedule: Q04DX003 (ip), vehicle: saline 100 % of control | dose: 1.25 mg/kg/injection, schedule: Q04DX003 (ip), vehicle: saline 100 % of control | dose: 2.5 mg/kg/injection, schedule: Q04DX003 (ip), vehicle: saline 104 % of control

CC([NH-])C[NH-].CC([NH-])C[NH-].CC([NH-])C[NH-].[Co] (configuration not stated)
inactive: dose: 12.5 mg/kg/injection, schedule: Q04DX003 (ip), vehicle: water 91 % of control | dose: 25.0 mg/kg/injection, schedule: Q04DX003 (ip), vehicle: water 94 % of control | dose: 50.0 mg/kg/injection, schedule: Q04DX003 (ip), vehicle: water 94 % of control | dose: 100.0 mg/kg/injection, schedule: Q04DX003 (ip), vehicle: water 90 % of control

C=C(C)CCOS(=O)(=O)c1ccc(C)cc1
inactive: [4] 102 % of control | [5] 110 % of control | [6] 90 % of control

Cc1cc(O)c2c(c1)C(=O)c1cccc(O)c1C2=O
inactive: dose: 6.25 mg/kg/injection, schedule: Q01DX009 (ip), vehicle: saline 100 % of control | dose: 12.5 mg/kg/injection, schedule: Q01DX009 (ip), vehicle: saline 111 % of control | dose: 25.0 mg/kg/injection, schedule: Q01DX009 (ip), vehicle: saline 117 % of control | [7] 108 % of control

COC1=CCC2=C(CCN(C)C2Cc2ccc(OC)cc2)C1 (configuration not stated)
inactive: [8] 97 % of control | [9] 96 % of control | [10] 100 % of control

O=C(O)C1=C(C=C(c2ccccc2)c2ccccc2)OCCC1
inactive: [11] 92 % of control | [12] 90 % of control | [4] 91 % of control | [6] 97 % of control

COC(=O)c1nnn(-c2ccc(Cl)cc2C)c1N
inactive: dose: 60.0 mg/kg/injection, schedule: Q01DX005 (ip), vehicle: saline with Tween-80 96 % of control | dose: 120.0 mg/kg/injection, schedule: Q01DX005 (ip), vehicle: saline with Tween-80 97 % of control | dose: 240.0 mg/kg/injection, schedule: Q01DX005 (ip), vehicle: saline with Tween-80 91 % of control

CC(=O)c1ccc(N=C2C(=O)Nc3ccccc32)cc1
inactive: [11] 93 % of control | [12] 87 % of control | [4] 89 % of control and 96 % of control | [5] 105 % of control | [6] 116 % of control

O=NN(CCCl)C(=O)N(CCCl)C(=O)Oc1c(Cl)cc(Cl)cc1Cl
active: [13] 150 % of control | [14] 179 % of control and 193 % of control | [15] 199 % of control
inactive: dose: 25.0 mg/kg/injection, schedule: Q01DX001 (ip), vehicle: saline with Tween-80 122 % of control

CCC[N+]1([O-])CCOCC1
inactive: [7] 102 % of control | dose: 100.0 mg/kg/injection, schedule: Q01DX009 (ip), vehicle: saline 100 % of control | dose: 200.0 mg/kg/injection, schedule: Q01DX009 (ip), vehicle: saline 94 % of control

C=CCC12CC(O)C(O)CC1(OC)OC(c1cc(OC)c(OC)c(OC)c1)C2C (configuration not stated)
inactive: dose: 1.25 mg/kg/injection, schedule: Q01DX005 (ip), vehicle: acid diluted with saline 102 % of control | dose: 2.5 mg/kg/injection, schedule: Q01DX005 (ip), vehicle: acid diluted with saline 102 % of control | dose: 5.0 mg/kg/injection, schedule: Q01DX005 (ip), vehicle: acid diluted with saline 98 % of control | dose: 10.0 mg/kg/injection, schedule: Q01DX005 (ip), vehicle: acid diluted with saline 102 % of control

CC(Nc1ccc(S(=O)(=O)Nc2ncccn2)cc1)c1ccc2cccnc2c1O (configuration not stated)
inactive: [13] 94 % of control | [14] 98 % of control

CCCc1nnc2n1NC1(CS2)Nc2ccccc2N1
inactive: [13] 98 % of control | [14] 97 % of control | [15] 95 % of control

CCOC(=O)/C=C/c1ccc(C(=O)OCC)[nH]1
inactive: dose: 25.0 mg/kg/injection, schedule: Q01DX009 (ip), vehicle: Klucel (hydroxypropylcellulose) (HPC) 101 % of control | [16] 100 % of control | [1] 107 % of control | [2] 97 % of control

O=C1C=C(C2=CC(=O)c3cccc(O)c3C2=O)C(=O)c2c(O)cccc21
inactive: dose: 6.25 mg/kg/injection, schedule: Q01DX009 (ip), vehicle: Klucel (hydroxypropylcellulose) (HPC) 115 % of control | dose: 12.5 mg/kg/injection, schedule: Q01DX009 (ip), vehicle: Klucel (hydroxypropylcellulose) (HPC) 115 % of control

O=S(=O)(O)OOS(=O)(=O)O
inactive: [16] 100 % of control | [1] 87 % of control

Cc1nn(C(=S)S)c(C)c1N=Nc1ccc([N+](=O)[O-])cc1
inactive: [9] 94 % of control | [10] 104 % of control | [17] 108 % of control

COc1ccc2c(c1OC)C(O)N1CCc3cc4c(cc3C1=C2C(=O)c1ccccc1)OCO4 (configuration not stated)
inactive: [8] 100 % of control and 106 % of control | [9] 100 % of control and 94 % of control | [10] 103 % of control (2×) and 123 % of control | [17] 111 % of control
